Data on 2 compounds can be found in patent US9296749B2, “Crystalline cis-(E)-4-(3-fluorophenyl)-2′,3′,4′,9′-tetrahydro-N,N-dimethyl-2′-(1-oxo-3-phenyl-2-propenyl)-spiro[cyclohexane-1,1′[1H]” (priority 2013, dated 2016).

A value given as a limit tells only on which side of the number the result lay.

Holding throughout (format): physicochemical
The nature of data set [1]: Chemical stability of crystalline forms, open-vial storage (content by HPLC, crystalline form by XRPD). How it is done: Samples of compound 1 in different crystalline forms were stored in open vials under controlled conditions at different temperatures and rel. humidities for 28 days. Prior to storage and after 14 and 28 days the content of compound (1) in the sample was determined via HPLC and the crystalline form was measured via XRPD.

Data set [2] is described as follows: Dynamic vapor sorption (DVS), hygroscopicity. How it is done: Crystalline forms were characterized by dynamic vapor sorption (DVS) using a Porotec DVS 1000 or a SMS DVS Intrinsic water vapor sorption analyzer. For the DVS analysis, a step width of 10% r.h. was applied allowing the samples to equilibrate and reach weight constancy (±0.002%) for at least 10 min on each step. All measurements were performed according to the following program: 50% r.h.→90% r.h., 90→0% r.h., 0%→90% r.h., 90%→50% r.h. A cycle with increasing humidity is also known as a sorption cycle, a cycle with decreasing humidity is also known as a desorption cycle. The details of the respective DVS measurements are shown below in table 51 and discussed further below.
The hygroscopicity of the respective crystalline forms determined via the DVS measurements was classified according to the ranges for mass increase defined in the European Pharmacopoeia: very hygroscopic (vh): increase of the mass ≧15%; hygroscopic (h): increase of the mass is less than 15% and equal or greater than 2%; slightly hygroscopic (sh): increase of the mass is less than 2% and equal or greater than 0.2%; not hygroscopic (nh): increase of the mass is less than 0.2%; deliquescent (d): sufficient water is absorbed to form a liquid.

Data set [3] in a line: Stability of crystalline form B on drying at reduced pressure. Conditions: dried at 50±2° C., about 7 mBar, 72 hours. The procedure:
The samples were let to cool to room temperature under ambient conditions before they were analyzed.

The nature of data set [4]: Chemical stability in pharmaceutical compositions (excipient mixtures with 10% compound (1)). Conditions: listed as B. How it is done: To test the chemical stability, i.e. compatibility of different crystalline forms of compound (1), solid multi component mixtures were prepared comprising well established excipients used for solid oral dosage form and having different functions therein. The single components of each mixture were exactly weighed and intensively triturated using a mortar and a pestle.
10 g of the final mixtures were separately filled into glass vials (open or closed) and stored under the conditions outlined below in table 13. Samples were taken and analyzed initially and after 1, 2 and 3 months with respect to the content of compound (1) within the mixtures.

Data set [5] in a line: Storage of crystalline form C, X-ray diffraction. As to conditions: stored for up to 4 months.

Turning to `CN(C)[C@]1(c2cccc(F)c2)CC[C@]2(CC1)c1[nH]c3ccccc3c1CCN2C(=O)/C=C/c1ccccc1` [crystalline form B, cis-(E)-4-(3-Fluorophenyl)-2′,3′,4′,9′-tetrahydro-N,N-dimethyl-2′-(1-oxo-3-phenyl-2-propenyl)-spiro[cyclohexane-1,1′[1H]-pyrido[3,4-b]indol]-4-amine], the “Content cmpd (1)” value worked out at 84.85% in data set [1] (40° C., 75% r.H., storage 0 d, listed as B); 84.21% in data set [1] (40° C., 75% r.H., storage 14 d, listed as B); 83.74% in data set [1] (40° C., 75% r.H., storage 28 d, listed as B); 84.85% in data set [1] (50° C., storage 0 d, listed as B); 82.63% in data set [1] (50° C., storage 14 d, listed as B); 81.26% in data set [1] (50° C., storage 28 d, listed as B). This compound also had a hysteresis in data set [2] (between 10% to 40% relative humidity) of over 0.5%. Besides, the resulting crystalline form in data set [3] is reported as “crystalline form B”. Also, the “content of compound (1) within the mixture” value (shortened to “content of compound”) was 99.57 in data set [4] (Lactose monohydrate, PVP25, Crospovidone, Talcum, 40° C., 75% rel. hum., 0 month); 99.22 in data set [4] (Lactose monohydrate, PVP25, Crospovidone, Talcum, 40° C., 75% rel. hum., 1 month); 99.05 in data set [4] (Lactose monohydrate, PVP25, Crospovidone, Talcum, 40° C., 75% rel. hum., 2 months); 96.87 in data set [4] (Lactose monohydrate, PVP25, Crospovidone, Talcum, 40° C., 75% rel. hum., 3 months); 99.57 in data set [4] (Lactose monohydrate, PVP25, Crospovidone, Talcum, 50° C. dry, 0 month); 95.82 in data set [4] (Lactose monohydrate, PVP25, Crospovidone, Talcum, 50° C. dry, 1 month). Besides, the “content of compound” value is on record as 91.04 in data set [4] (Lactose monohydrate, PVP25, Crospovidone, Talcum, 50° C. dry, 2 months); 85.33 in data set [4] (Lactose monohydrate, PVP25, Crospovidone, Talcum, 50° C. dry, 3 months); 99.69 in data set [4] (Microcrystalline cellulose, HPMC 6 mPas, L-HPC LH21, magnesium stearate, 40° C., 75% rel. hum., 0 month); 99.53 in data set [4] (Microcrystalline cellulose, HPMC 6 mPas, L-HPC LH21, magnesium stearate, 40° C., 75% rel. hum., 1 month); 98.57 in data set [4] (Microcrystalline cellulose, HPMC 6 mPas, L-HPC LH21, magnesium stearate, 40° C., 75% rel. hum., 2 months); 99.39 in data set [4] (Microcrystalline cellulose, HPMC 6 mPas, L-HPC LH21, magnesium stearate, 40° C., 75% rel. hum., 3 months). Further, the “content of compound” value in data set [4] (Microcrystalline cellulose, HPMC 6 mPas, L-HPC LH21, magnesium stearate, 50° C. dry, 0 month) was 99.75; in data set [4] (Microcrystalline cellulose, HPMC 6 mPas, L-HPC LH21, magnesium stearate, 50° C. dry, 1 month), 95.74; in data set [4] (Microcrystalline cellulose, HPMC 6 mPas, L-HPC LH21, magnesium stearate, 50° C. dry, 2 months), 91.45; in data set [4] (Microcrystalline cellulose, HPMC 6 mPas, L-HPC LH21, magnesium stearate, 50° C. dry, 3 months), 87.34.

Regarding `CN(C)[C@]1(c2cccc(F)c2)CC[C@]2(CC1)c1[nH]c3ccccc3c1CCN2C(=O)/C=C/c1ccccc1` [crystalline form C, cis-(E)-4-(3-Fluorophenyl)-2′,3′,4′,9′-tetrahydro-N,N-dimethyl-2′-(1-oxo-3-phenyl-2-propenyl)-spiro[cyclohexane-1,1′[1H]-pyrido[3,4-b]indol]-4-amine], the “Content cmpd (1)” value is 99.67% in data set [1] (40° C., 75% r.H., storage 0 d, listed as C); 99.68% in data set [1] (40° C., 75% r.H., storage 14 d, listed as C); 99.44% in data set [1] (40° C., 75% r.H., storage 28 d, listed as C); 99.67% in data set [1] (50° C., storage 0 d, listed as C); 99.57% in data set [1] (50° C., storage 14 d, listed as C); 99.20% in data set [1] (50° C., storage 28 d, listed as C). Further, the weight loss result in data set [2] (desorption cycle from 90 to 0% r.h.) is reported as “about 6.6%”. In addition, the change in mass entry in data set [2] (sorption cycle from 50% to 90% relative humidity) is on record as “no major change in mass”. The “weight gain at 90%” value in data set [2] (subsequent sorption cycle) is given as “about 2.8%”. Also, the conversion on storage entry in data set [5] was “converted to Polymorph I in three to four months”.
